In ChEMBL document CHEMBL1154707, “Morpholine derivatives greatly enhance the selectivity of mammalian target of rapamycin (mTOR) inhibitors” (J Med Chem, 2009):

Columns and labels:
[1] = Selectivity for FLAG-tagged human mTOR over PI3Kalpha
[2] = target: Serine/threonine-protein kinase mTOR (Homo sapiens, UniProt P42345); assay: Inhibition of FLAG-tagged human mTOR by DELFIA method
LNCaP = assay: Growth inhibition of human LNCAP cells after 3 days by MTS method; type: functional, cell-based; settings: 72 h
[3] = target: Phosphatidylinositol 4,5-bisphosphate 3-kinase catalytic subunit beta isoform (Homo sapiens, UniProt P42338); assay: Inhibition of PI3Kbeta
Phosphatidylinositol 4,5-bisphosphate 3-kinase catalytic subunit beta isoform, sequence (P42338 whole entry, canonical isoform): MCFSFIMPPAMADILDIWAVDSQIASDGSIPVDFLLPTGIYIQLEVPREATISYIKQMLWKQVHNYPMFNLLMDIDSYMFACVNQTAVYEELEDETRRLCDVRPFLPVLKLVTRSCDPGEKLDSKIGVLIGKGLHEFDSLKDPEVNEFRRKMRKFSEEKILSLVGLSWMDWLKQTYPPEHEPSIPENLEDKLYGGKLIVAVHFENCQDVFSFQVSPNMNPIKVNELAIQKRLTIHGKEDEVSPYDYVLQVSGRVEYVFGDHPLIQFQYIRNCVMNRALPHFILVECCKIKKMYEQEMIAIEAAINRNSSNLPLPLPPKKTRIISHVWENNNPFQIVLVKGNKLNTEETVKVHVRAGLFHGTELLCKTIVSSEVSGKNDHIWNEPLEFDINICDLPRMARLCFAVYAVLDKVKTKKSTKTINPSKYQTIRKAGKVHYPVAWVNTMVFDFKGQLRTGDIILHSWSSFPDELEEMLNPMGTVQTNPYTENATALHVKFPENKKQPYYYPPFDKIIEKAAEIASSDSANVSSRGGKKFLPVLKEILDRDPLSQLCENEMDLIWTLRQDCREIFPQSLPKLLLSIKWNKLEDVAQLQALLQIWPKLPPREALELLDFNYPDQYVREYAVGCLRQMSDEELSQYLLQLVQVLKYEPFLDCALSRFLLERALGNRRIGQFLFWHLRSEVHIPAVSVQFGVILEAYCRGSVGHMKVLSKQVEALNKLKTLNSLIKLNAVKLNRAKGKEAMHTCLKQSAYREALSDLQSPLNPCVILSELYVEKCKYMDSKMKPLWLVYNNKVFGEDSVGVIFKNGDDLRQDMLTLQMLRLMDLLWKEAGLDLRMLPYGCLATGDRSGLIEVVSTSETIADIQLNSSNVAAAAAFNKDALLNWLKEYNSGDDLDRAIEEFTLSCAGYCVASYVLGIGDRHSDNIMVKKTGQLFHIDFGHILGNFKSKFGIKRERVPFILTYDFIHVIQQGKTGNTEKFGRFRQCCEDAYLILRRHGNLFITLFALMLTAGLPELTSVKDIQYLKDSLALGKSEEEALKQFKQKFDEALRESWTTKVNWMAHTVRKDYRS

[4] = target: Phosphatidylinositol 4,5-bisphosphate 3-kinase catalytic subunit alpha isoform (Homo sapiens, UniProt P42336); assay: Inhibition of PI3Kalpha
Phosphatidylinositol 4,5-bisphosphate 3-kinase catalytic subunit alpha isoform, sequence (P42336 whole entry, canonical isoform): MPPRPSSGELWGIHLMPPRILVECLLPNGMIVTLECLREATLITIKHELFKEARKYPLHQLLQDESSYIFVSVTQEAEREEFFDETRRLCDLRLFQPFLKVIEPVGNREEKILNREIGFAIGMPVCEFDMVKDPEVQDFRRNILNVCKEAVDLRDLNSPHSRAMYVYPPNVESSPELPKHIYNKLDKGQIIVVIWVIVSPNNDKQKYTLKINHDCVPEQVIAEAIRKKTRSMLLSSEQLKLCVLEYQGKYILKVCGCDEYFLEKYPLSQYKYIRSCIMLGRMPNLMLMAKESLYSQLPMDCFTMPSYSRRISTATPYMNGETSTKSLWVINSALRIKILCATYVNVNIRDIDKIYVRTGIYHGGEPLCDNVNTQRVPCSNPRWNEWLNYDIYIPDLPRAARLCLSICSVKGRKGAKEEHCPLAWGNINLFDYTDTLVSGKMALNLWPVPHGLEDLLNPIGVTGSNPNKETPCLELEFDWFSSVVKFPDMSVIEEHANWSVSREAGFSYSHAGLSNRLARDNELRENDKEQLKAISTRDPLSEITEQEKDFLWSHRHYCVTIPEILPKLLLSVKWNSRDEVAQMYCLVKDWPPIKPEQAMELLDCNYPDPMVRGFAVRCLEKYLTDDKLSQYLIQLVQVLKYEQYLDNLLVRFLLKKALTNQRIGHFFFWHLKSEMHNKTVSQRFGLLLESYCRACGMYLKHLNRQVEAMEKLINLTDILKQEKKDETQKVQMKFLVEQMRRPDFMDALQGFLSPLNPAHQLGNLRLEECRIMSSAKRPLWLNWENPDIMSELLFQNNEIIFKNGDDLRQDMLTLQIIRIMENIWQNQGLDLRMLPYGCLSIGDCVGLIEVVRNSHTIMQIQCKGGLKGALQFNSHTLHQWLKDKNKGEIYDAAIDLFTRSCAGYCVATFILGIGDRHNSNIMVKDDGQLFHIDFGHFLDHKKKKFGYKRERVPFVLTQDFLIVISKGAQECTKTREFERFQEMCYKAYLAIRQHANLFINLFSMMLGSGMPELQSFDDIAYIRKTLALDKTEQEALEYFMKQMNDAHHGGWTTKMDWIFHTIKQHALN

[5] = target: T1, Phosphatidylinositol 4,5-bisphosphate 3-kinase catalytic subunit delta isoform (Homo sapiens, UniProt O00329); assay: Inhibition of PI3Kdelta
T1 sequence (O00329 whole entry): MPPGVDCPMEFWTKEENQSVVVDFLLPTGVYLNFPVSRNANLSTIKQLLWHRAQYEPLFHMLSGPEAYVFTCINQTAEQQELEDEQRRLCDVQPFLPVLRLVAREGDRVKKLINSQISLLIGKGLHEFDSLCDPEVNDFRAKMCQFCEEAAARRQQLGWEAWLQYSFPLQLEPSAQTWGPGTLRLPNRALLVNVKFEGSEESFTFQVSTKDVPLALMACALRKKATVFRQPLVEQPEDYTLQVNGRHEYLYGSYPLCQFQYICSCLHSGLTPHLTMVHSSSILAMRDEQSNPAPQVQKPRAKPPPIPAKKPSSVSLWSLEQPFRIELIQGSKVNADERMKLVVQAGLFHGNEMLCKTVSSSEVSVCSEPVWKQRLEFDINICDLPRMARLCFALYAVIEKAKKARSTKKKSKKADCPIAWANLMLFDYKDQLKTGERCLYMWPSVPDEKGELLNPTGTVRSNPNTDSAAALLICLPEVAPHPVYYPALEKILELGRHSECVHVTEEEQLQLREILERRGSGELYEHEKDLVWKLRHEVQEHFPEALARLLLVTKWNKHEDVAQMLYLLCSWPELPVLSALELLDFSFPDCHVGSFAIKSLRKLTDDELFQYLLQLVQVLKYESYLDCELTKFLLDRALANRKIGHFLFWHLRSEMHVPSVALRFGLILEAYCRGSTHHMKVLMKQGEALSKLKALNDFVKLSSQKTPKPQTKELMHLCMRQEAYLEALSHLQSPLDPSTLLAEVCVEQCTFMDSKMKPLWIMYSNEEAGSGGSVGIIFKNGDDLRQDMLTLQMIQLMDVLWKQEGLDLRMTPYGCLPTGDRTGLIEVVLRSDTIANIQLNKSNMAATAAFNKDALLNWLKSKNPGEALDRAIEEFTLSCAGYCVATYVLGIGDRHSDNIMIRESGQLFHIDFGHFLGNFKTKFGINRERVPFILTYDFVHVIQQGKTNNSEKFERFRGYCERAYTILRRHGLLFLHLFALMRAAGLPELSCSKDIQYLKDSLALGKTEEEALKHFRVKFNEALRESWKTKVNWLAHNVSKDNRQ

Ratio IC50 [1]	IC50 [2] [nM]	SMILES	also measured
289	1.8	CCOC(=O)N1CCC(n2ncc3c(N4CCOC[C@@H]4C)nc(-c4ccc(NC(=O)NCCF)cc4)nc32)CC1	–
8010	0.22	CNC(=O)Nc1ccc(-c2nc(N3CC4CCC(C3)O4)c3cnn(C4CCN(C(=O)OC)CC4)c3n2)cc1	–
26700	0.2	CCNC(=O)Nc1ccc(-c2nc(N3CC4CCC(C3)O4)c3cnn(C4CCN(C(=O)OC)CC4)c3n2)cc1	IC50 (LNCaP): 9 nM
4140	0.17	CCNC(=O)Nc1ccc(-c2nc(N3CCOCC3)c3cnn(C4CCN(C(=O)OCC)CC4)c3n2)cc1	–
6910	0.62	COC(=O)N1CCC(n2ncc3c(N4CC5CCC(C4)O5)nc(-c4ccc(NC(=O)NC5CC5)cc4)nc32)CC1	IC50 [3]: > 10 µM; IC50 [4]: 4.32 µM; IC50 [5]: 2630 nM
135	–	COC(=O)N1CCC(n2ncc3c(N4CCOC(C)C4)nc(-c4ccc(NC(=O)Nc5cccnc5)cc4)nc32)CC1 (stereo unspecified)	–
1850	–	CCOC(=O)N1CCC(n2ncc3c(N4CCOC[C@H]4C)nc(-c4ccc(NC(=O)Nc5ccncc5)cc4)nc32)CC1	–
8890	–	CCNC(=O)Nc1ccc(-c2nc(N3C4CCC3COC4)c3cnn(C4CCN(C(=O)OC)CC4)c3n2)cc1	–
19400	–	CNC(=O)Nc1ccc(-c2nc(N3C4CCC3COC4)c3cnn(C4CCN(C(=O)OC)CC4)c3n2)cc1	–
307	1.8	CCNC(=O)Nc1ccc(-c2nc(N3CCOC[C@@H]3C)c3cnn(C4CCN(C(=O)OCC)CC4)c3n2)cc1	–
116	2.3	CNC(=O)Nc1ccc(-c2nc(N3CCOC(C)C3)c3cnn(C4CCN(C(=O)OC)CC4)c3n2)cc1 (stereo unspecified)	–
3670	1.2	CCOC(=O)N1CCC(n2ncc3c(N4CCOC[C@H]4C)nc(-c4ccc(NC(=O)NCCF)cc4)nc32)CC1	–
32	0.58	CCOC(=O)N1CCC(n2ncc3c(N4CCOC[C@@H]4C)nc(-c4ccc(NC(=O)Nc5ccncc5)cc4)nc32)CC1	–
4980	–	CCNC(=O)Nc1ccc(-c2nc(N3CCOC[C@H]3C)c3cnn(C4CCN(C(=O)OCC)CC4)c3n2)cc1	–
175	–	COC(=O)N1CCC(n2ncc3c(N4CCOCC4)nc(-c4ccc(NC(=O)Nc5cccnc5)cc4)nc32)CC1	–
360	1.9	CCNC(=O)Nc1ccc(-c2nc(N3CCOC(C)C3)c3cnn(C4CCN(C(=O)OC)CC4)c3n2)cc1 (stereo unspecified)	–

The next lines start with the compound.

SMILES	Ratio IC50 [1]	IC50 [2] [nM]	also measured
O=C(Nc1ccc(-c2nc(N3C[C@@H]4C[C@H]3CO4)c3cnn(CC(F)(F)F)c3n2)cc1)NC1CC1	2170	1.9	–
O=C(NCCF)Nc1ccc(-c2nc(N3CC4CCC(C3)O4)c3cnn(CC(F)(F)F)c3n2)cc1	11900	0.23	–
O=C(Nc1ccc(-c2nc(N3C[C@H]4C[C@@H]3CO4)c3cnn(CC(F)(F)F)c3n2)cc1)NC1CC1	179	–	–
CNC(=O)Nc1ccc(-c2nc(N3CC4CCC(C3)O4)c3cnn(CC(F)(F)F)c3n2)cc1	3230	0.5	–
O=C(Nc1ccc(-c2nc(N3C[C@H]4C[C@@H]3CO4)c3cnn(CC(F)(F)F)c3n2)cc1)Nc1cccnc1	114	–	–
CNC(=O)Nc1ccc(-c2nc(N3C[C@@H]4C[C@H]3CO4)c3cnn(CC(F)(F)F)c3n2)cc1	380	–	–
O=C(Nc1ccc(-c2nc(N3CCOCC3)c3cnn(CC(F)(F)F)c3n2)cc1)Nc1cccnc1	43	0.23	–
COC(=O)N1CCC(n2ncc3c(N4CC5CCC(C4)O5)nc(-c4ccc(NC(=O)Nc5cccnc5)cc4)nc32)CC1	5580	0.11	–
O=C(Nc1ccc(-c2nc(N3CC4CCC(C3)O4)c3cnn(CC(F)(F)F)c3n2)cc1)Nc1cccnc1	1820	0.19	–
CNC(=O)Nc1ccc(-c2nc(N3CC4CCC(C3)O4)c3cnn(C4CCN(Cc5cccnc5)CC4)c3n2)cc1	1410	0.48	–
COC(=O)N1CCC(n2ncc3c(N4C5CCC4COC5)nc(-c4ccc(NC(=O)Nc5cccnc5)cc4)nc32)CC1	11100	0.16	–
CNC(=O)Nc1ccc(-c2nc(N3CCOCC3)c3cnn(CC(F)(F)F)c3n2)cc1	194	–	–
O=C(NCCF)Nc1ccc(-c2nc(N3CCOCC3)c3cnn(CC(F)(F)F)c3n2)cc1	524	–	–
O=C(Nc1ccc(-c2nc(N3C4CCC3COC4)c3cnn(CC(F)(F)F)c3n2)cc1)Nc1cccnc1	1140	–	–
CNC(=O)Nc1ccc(-c2nc(N3C[C@H]4C[C@@H]3CO4)c3cnn(CC(F)(F)F)c3n2)cc1	51	–	–
O=C(Nc1ccc(-c2nc(N3C[C@@H]4C[C@H]3CO4)c3cnn(CC(F)(F)F)c3n2)cc1)Nc1cccnc1	482	1.2	–
CNC(=O)Nc1ccc(-c2nc(N3C4CCC3COC4)c3cnn(CC(F)(F)F)c3n2)cc1	2420	–	–
